These results are taken from PubChem BioAssay (NCI).

Holding throughout (test): growth of human tumour cells (NCI), 48 h
The subject of assay [1] is RPMI-8226 leukemia.
Assay [2] has as its system HL-60(TB) leukemia.
The subject of assay [3] is M14 melanoma.
Assay [4] relates to HCC-2998 colon.
The test system of assay [5] is HOP-92 NSCLC.
Assay [6] deals with ACHN renal.
In assay [7] the test system is NCI-H226 lung.
The test system of assay [8] is HT29 colon.
Assay [9] relates to SNB-75 CNS.
The subject of assay [10] is A498 renal.

SMILES strings stand for the structures.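 Where inhibition never reached the appropriate level, the endpoint shown equals the highest concentration tested. Otherwise, values were interpolated linearly from a five-concentration, 48-hour dose response in 96-well plates. Here, GI50 denotes the concentration required for 50% inhibition of growth. TGI is the concentration that stops growth completely.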 A value given as a limit tells only on which side of the number the result lay.

As for `C1=Nc2ccccc2Cn2nncc21`, the TGI in assay [1], in [2], in assay [3], in assay [4], in assay [5] and in assay [6] was > 100 µM in each case. Also, the TGI in assay [7] and in assay [8] was > 100 µM throughout.

Take `OC(c1ccccc1)C1CC2C=CC1C2` (centres undefined): the TGI in assay [1], in assay [2], in [3], in assay [9], in [5] and in assay [6] was > 100 µM each time. For the same compound, the TGI in assay [10] and in assay [8] was > 100 µM throughout.

In the case of `O=c1ccc2c(Cl)cccc2o1`, the TGI in assay [1], in assay [2], in [3], in assay [9], in assay [4] and in [5] was > 100 µM each time. In addition, the TGI in assay [6], in [7] and in [10] was > 100 µM throughout.

Take `CCN(CC)CCCC(C)Nc1c2ccc(Cl)cc2nc2cc(Cl)ccc12` (centres undefined): the TGI in [1] was found to be 5.11 µM; in assay [2], 4.6 µM; in assay [9] it was 22.7 µM; in assay [4] it was 5.49 µM; in [5] it was 9.64 µM; in [7] it was 9.76 µM. The TGI in [10] is 21.9 µM; in assay [8], 8.28 µM.

For `Clc1ccc(C2CC(c3cccc(Nc4ccncc4)c3)=NN2c2ccccc2)cc1` (centres undefined), the GI50 in assay [2] is 1.71 µM; in assay [3], 1.73 µM; in assay [9] it was 1.37 µM; in assay [4], 1.6 µM; in [5] it was 1.4 µM; in [6] it was 1.66 µM. In addition, the GI50 was 16.4 µM in [7], 1.43 µM in assay [10] and 1.69 µM in assay [8]. Besides, the TGI came out at 3.87 µM in assay [2]; 3.37 µM in [3]; 2.79 µM in assay [9]; 3.06 µM in [4]; 2.82 µM in assay [5]; 3.02 µM in assay [6]. Further, the TGI is 39.5 µM in [7], 3.3 µM in assay [10] and 3.62 µM in assay [8].

For `CC(C(=O)NCCNC(=O)CCCC(=O)N(C)O)C(=O)NCCNC(=O)CCCC(=O)N(C)O`, the TGI in assay [1], in [2], in [3], in assay [9], in assay [4] and in assay [5] was > 100 µM throughout. Besides, the TGI in [6], in assay [7], in [10] and in assay [8] was > 100 µM in each case.

`COc1ccc(N2C(=O)C(=O)N(C)C2=O)c2ccccc12`: the TGI in [1], in assay [2], in assay [3], in [9], in [4] and in [6] was > 10 µM in each case. Also, the TGI in assay [7], in assay [10] and in assay [8] was > 10 µM each time.

Regarding `CSC1=C(SC)C(=O)c2cn(C)c(=O)cc2C1=O`, the TGI is > 100 µM in [1]; 3.14 µM in [3]; 22.5 µM in assay [9]; 35.8 µM in [4]; 2.12 µM in [5]; 3.32 µM in assay [6]. Also, the TGI in assay [7] amounted to 40.4 µM; in [10], 28.4 µM; in assay [8], 13.1 µM.

On to `Fc1ccc(Nc2ncc(-c3cc(F)c(Cl)cc3Cl)s2)cc1Cl`, for which the GI50 is 9.38 µM in assay [1]; 18.1 µM in assay [2]; 39.3 µM in assay [9]; 1.47 µM in [5]; 19.3 µM in assay [6]; 7.92 µM in assay [7]. Also, the values for the GI50 in [10] and in assay [8] were 11.2 µM and 24.3 µM, respectively. In addition, the TGI was 25.1 µM in assay [1]; 36.2 µM in assay [2]; > 100 µM in assay [9]; 13.3 µM in [5]; 51.5 µM in assay [6]; > 100 µM in assay [7]. Moreover, the TGI in assay [10] is 29.1 µM; in [8] it was > 100 µM.

Take `CC1(CO)C(O)CCC2(C)C1C(O)CC1CC3CC12CCC3(O)CO` (centres undefined): the TGI in [1] was > 196 µM; in assay [2], > 225 µM; in [9] it was > 225 µM; in assay [4], > 225 µM; in assay [5], > 225 µM; in [7], 224 µM. In addition, the TGI in assay [10] and in [8] was > 225 µM in each case.

On to `COC1=CC(=O)c2c(c(COC(C)=O)cn2C)C1=O`, for which the TGI amounted to 0.584 µM in assay [1]; 0.694 µM in [2]; 0.195 µM in assay [3]; 0.88 µM in assay [9]; 0.822 µM in [5]; 0.173 µM in [6]. Moreover, the TGI stood at 0.424 µM in [7], 0.586 µM in assay [10] and 0.124 µM in [8].

As for `CC(C)NC(=O)OCc1nnn2c1CCC2`, the TGI in [2], in assay [3], in [9], in assay [4], in assay [5] and in [6] was > 100 µM throughout. For the same compound, the TGI in assay [8] is > 100 µM.
